Columns and labels:
[1] = target: T1, human β2 adrenergic receptor (β2AR) (Homo sapiens, UniProt P07550); assay: β2AR activity by [3H]-dihydroalprenolol radioactive ligand binding assay; assay type: biochemical; conditions: for long-term β2AR activity ([3H]-DHA binding): 3 or 5 days at room temperature
T1 construct: Flag; made in house
Experimental: The membrane protein stabilizing ability of receptors (mBBr-β2ARs) solubilized in PSAs or PSEs was evaluated by measuring the binding activity of the receptors to [^3H]-dihydroalprenolol ([^3H]-DHA).
Specifically, radioactive ligand binding assay was performed as follows. β2ARs purified with 0.1 wt % DDM was concentrated to about 10 mg/mL (approximately 200 μM). β2ARs purified with DDM were used to prepare a master binding mixture containing 10 nM [^3H]-dihydroalprenolol (DHA), which was dissolved in 0.2 wt % of DDM, PSA or PSE and supplemented with 0.5 mg/mL BSA. At a concentration of 0.2 pmol, the activity of the receptors purified with the amphipathic compounds was monitored at regular intervals over a 4-day incubation period. Protein samples were incubated on ice for 2 days and then at room temperature for 2 days. Receptor activity was measured by binding assay for dissolved radioactive ligands. The receptors purified with DDM or a novel formulation (PSA-C11, PSE-C11 or PSE-C13) were incubated with 10 nM [^3H]-DHA at room temperature for 30 minutes. The mixture was loaded onto a G-50 column, a solution passed through the column was collected in 1 mL of a binding buffer (100 mM NaCl and 20 mM HEPES (pH 7.5) supplemented with 0.5 mg/mL BSA and 20×CMC amphipathic compounds), and 15 mL of a scintillation fluid was added to the solution. Receptor-bound [^3H]-DHA was measured using a scintillation counter (Beckman). Non-specific binding of [^3H]-DHA was measured by adding 1 μM alprenolol (Sigma) to the same reaction mixture. The binding degree of the receptors to [^3H]-DHA was represented by a column graph.
The ability of TPSs (TPS-As, TPS-Es and TPS-ELs) to stabilize the structures of human β2 adrenergic receptors (β2ARs) and G protein-coupled receptors (GPCRs) was measured. That is, DDM-purified receptors were diluted with a buffer solution containing only each of the TPSs without cholesteryl hemisuccinate (CHS) or a buffer solution containing CHS and DDM. The final concentration of the compounds was CMC+0.2wt %, and the binding activity of the receptors to ligands was evaluated by measuring the degree of binding of the receptors to [^3H]-dihydroalprenolol ([^3H]-DHA).
Specifically, radioactive ligand binding assay was performed as follows. β2ARs were purified with 0.1 wt % DDM (D. M. Rosenbaum et al., Science, 2007, 318, 1266-1273.) and was concentrated to about 10 mg/mL (approximately 200 μM). β2ARs purified with DDM were used to prepare a master binding mixture containing 10 nM [^3H]-dihydroalprenolol (DHA), which was dissolved in 0.2% amphipathic compounds (DDM or TPSs) and supplemented with 0.5 mg/mL BSA. The activity of the receptors purified with the amphipathic compounds was monitored at regular intervals over a 3- to 5-day incubation period. The receptors purified with DDM or TPSs were incubated with 10 nM [^3H]-DHA at room temperature for 30 minutes. The mixture was loaded onto a G-50 column, a solution passed through the column was collected in 1 mL of a binding buffer (100 mM NaCl and 20 mM HEPES (pH 7.5) supplemented with 0.5 mg/mL BSA and 20×CMC of each amphipathic compound), and 15 mL of a scintillation fluid was added to the solution. Receptor-bound [^3H]-DHA was measured using a scintillation counter (Beckman). The binding degree of the receptors to [^3H]-DHA was represented by a column graph.

[2] = tested on: leucine transporter (LeuT); assay: LeuT stability, [3H]-Leu binding by scintillation proximity assay (SPA); assay type: biochemical, Aquifex aeolicus; conditions: room temperature
Experimental: The ability of PSAs, PSEs or TPSs (TPS-A/E/ELs) to stabilize leucine transporter (LeuT), a membrane protein, was measured. LeuT purified by DDM was mixed with a solution containing each amphipathic compound, and the mixture was incubated at room temperature for 12 days. The activity of LeuT proteins was measured by scintillation proximity assay (SPA) using a ligand ([^3H]-Leu), and the concentration of PSAs, PSEs, TPSs or DDM was (a) CMC+0.04 wt %, or (b) CMC+0.2 wt %.
Specifically, LeuT stability measurement was performed in the following manner. According to the results of Example 6, PSA-C10, PSA-C11, PSE-C9, PSE-C11, and PSE-C13 were selected as the amphipathic compounds of PSAs and PSEs except for PSA-C9, and wild type leucine transporter (LeuT) was purified from Aquifex aeolicus using TPS-As, TPS-Es and TPS-EL, according to the method described in G. Deckert et al. (Nature 1998, 392, 353-358.). E. coli C41 (DE3) was transformed with a pET16b plasmid containing a gene construct encoding C-terminal 8×His-tagged LeuT, and thus LeuT was expressed in the form of a fusion protein having 8×His tags at the C-terminus in the transformed E. coli C41 (the expression plasmid was provided by Dr. E. Gouaux, Vollum Institute, Portland, Oreg., USA). Briefly, bacterial membranes containing LeuT were treated with 1.0 wt % DDM, and proteins were bound to Ni^2+-NTA resin (Life Technologies, Denmark). LeuT bound to the resin was eluted using a buffer solution containing 20 mM Tris-HCl (pH 8.0), 1 mM NaCl, 199 mM KCl, 0.05% DDM and 300 mM imidazole. Next, about 1.5 mg/mL of protein stock was diluted 10-fold in an equivalent buffer supplemented with TPS-As, TPS-Es, TPS-ELs, PSAs/PSEs (PSA-C10, PSA-C11, PSE-C9, PSE-C11 and PSE-C13) or DDM (control group) to a final concentration of CMC+0.04 wt % or CMC+0.2 wt % without DDM and imidazole. The protein samples were stored at room temperature and centrifuged at designated times. Protein activity was determined by measuring the degree of binding to [^3H]-Leu using scintillation proximity assay (SPA) (M. Quick et al., Proc. Natl, Acad. Sci. U.S.A. 2007, 104, 3603-3608.). Briefly, SPA was performed with 5 μL of each protein sample dissolved in a buffer containing 450 mM NaCl and each test compound. The SPA reaction was performed in the presence of 20 nM [^3H]-Leu and copper chelate (His-Tag) YSi beads (both were purchased from PerkinElmer, Denmark). The degree of binding to [^3H]-Leu was measured using a MicroBeta liquid scintillation counter (PerkinElmer).

[3] = first two days of incubation at 0° C.

T1 sequence (P07550 whole entry): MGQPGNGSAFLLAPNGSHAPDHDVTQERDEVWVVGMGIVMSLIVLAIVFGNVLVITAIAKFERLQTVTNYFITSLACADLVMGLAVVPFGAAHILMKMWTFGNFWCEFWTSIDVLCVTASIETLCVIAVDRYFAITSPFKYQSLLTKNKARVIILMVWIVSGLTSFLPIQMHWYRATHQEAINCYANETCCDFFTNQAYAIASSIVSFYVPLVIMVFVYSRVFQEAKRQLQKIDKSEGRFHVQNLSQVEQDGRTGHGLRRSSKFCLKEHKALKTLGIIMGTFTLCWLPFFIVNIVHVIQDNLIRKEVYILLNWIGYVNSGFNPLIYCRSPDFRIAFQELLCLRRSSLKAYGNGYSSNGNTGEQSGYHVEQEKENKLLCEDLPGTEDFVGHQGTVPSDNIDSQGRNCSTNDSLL

Question: What does the source list for CCCCCCCCCCCCO[C@@H]1O[C@H](CO)[C@@H](O[C@H]2O[C@H](CO)[C@@H](O)[C@H](O)[C@H]2O)[C@H](O)[C@H]1O [DDM, n-dodecyl-β-D-maltopyranoside, reference compound]?
Answer: long-term β2AR activity ([3H]-DHA binding) [1]: the activity was rapidly lost over time; β2AR activity ([3H]-DHA binding) during incubation [1, 3]: well maintained the initial activity thereof

Question: Which “β2AR activity ([3H]-DHA binding) during incubation” value [1, 3] does the source give for CCCCCCCCCCCC(CCCCCCCCCCC)CO[C@@H]1OC(CO[C@@H]2OC(CO)[C@@H](O)C(O)C2O)[C@@H](O[C@@H]2OC(CO)[C@@H](O)C(O)C2O)C(O[C@@H]2OC(CO)[C@@H](O)C(O)C2O)C1O[C@@H]1OC(CO)[C@@H](O)C(O)C1O (stereo partly shown) [PSA-C11] here?
Answer: The value was “well maintained the initial activity thereof”.

Question: For CCCCCCCCCCCOCC(COCCCCCCCCCCC)O[C@@H]1OC(CO[C@@H]2OC(CO)[C@@H](O)C(O)C2O)[C@@H](O[C@@H]2OC(CO)[C@@H](O)C(O)C2O)C(O[C@@H]2OC(CO)[C@@H](O)C(O)C2O)C1O[C@@H]1OC(CO)[C@@H](O)C(O)C1O (stereo partly shown) [PSE-C11], which “initial β2AR activity ([3H]-DHA binding)” value ([1]; 0.2 wt % DDM, PSA or PSE) is on record?
Answer: The value was “higher initial activity than proteins solubilized in DDM”.

Question: What about the “β2AR activity ([3H]-DHA binding) during incubation” value [1, 3] of the same compound?
Answer: The value was “well maintained the initial activity thereof”.

Question: And the “β2AR activity ([3H]-DHA binding) during incubation” value ([1]; incubation at room temperature (days 3-4))?
Answer: The value was “the best”.

Question: What about the “maintenance of LeuT activity during 12 days of incubation” value (“maintenance” below) ([2]; CMC+0.04 wt %) of the same compound?
Answer: Its value is “did not show any appreciable decrease in protein activity”.

Question: What about the “maintenance” value ([2]; CMC+0.2 wt %) of the same compound?
Answer: The value was “completely preserved”.

Question: And the “LeuT transporter activity retained after 12 days of incubation” value ([2]; CMC+0.2 wt %, 12 days)?
Answer: The value was 100%.

Question: What does the source list for CCCCCCCCCCCCCOCC(COCCCCCCCCCCCCC)O[C@@H]1OC(CO[C@@H]2OC(CO)[C@@H](O)C(O)C2O)[C@@H](O[C@@H]2OC(CO)[C@@H](O)C(O)C2O)C(O[C@@H]2OC(CO)[C@@H](O)C(O)C2O)C1O[C@@H]1OC(CO)[C@@H](O)C(O)C1O (stereo partly shown) [PSE-C13]?
Answer: initial β2AR activity ([3H]-DHA binding) ([1]; 0.2 wt % DDM, PSA or PSE): higher initial activity than proteins solubilized in DDM; β2AR activity ([3H]-DHA binding) during incubation [1, 3]: well maintained the initial activity thereof; maintenance of LeuT activity during 12 days of incubation ([2]; CMC+0.04 wt %): did not show any appreciable decrease in protein activity

Question: Which “long-term β2AR activity ([3H]-DHA binding)” value [1] does the source give for CCCCCCCCOCC(COCCCCCCCC)(COCCCCCCCC)CO[C@@H]1OC(CO[C@@H]2OC(CO)[C@@H](O)C(O)C2O)[C@@H](O[C@@H]2OC(CO)[C@@H](O)C(O)C2O)C(O[C@@H]2OC(CO)[C@@H](O)C(O)C2O)C1O[C@@H]1OC(CO)[C@@H](O)C(O)C1O (stereo partly shown) [TPS-E8] here?
Answer: Its value is “significantly better than that of DDM”.

Question: What about the “initial β2AR activity ([3H]-DHA binding)” value ([1]; TPSs at CMC+0.2wt %, without CHS) of the same compound?
Answer: The value was “the most excellent”.

Question: What about the “maintenance” value ([2]; CMC+0.04 wt %) of the same compound?
Answer: The value was “remained intact”.

Question: What about the “maintenance” value ([2]; CMC+0.2 wt %) of the same compound?
Answer: The value was “completely preserved”.

Source: patent publication US20190169218A1, “AMPHIPATHIC COMPOUND HAVING NOVEL PENTA-SACCHARIDE HYDROPHILIC GROUP AND USE THEREOF” (Industry-University Cooperation Foundation Hanyang …, priority 2016, published 2019)
